# Values of other authors as cited in US20240358747A1, “SOME GEL FORMULATIONS THAT PROVIDE WOUND HEALING AND THE SYNTHESIS OF DYSPROSIUM ERBIUM BORATE TRIHYDRATE (Dy0.5Er0.5BO3.3H2O) COMPOUND USED IN THESE FORMULATIONS” (VERTRATECH KIMYA SANAYI VE TICARET LIMITED SIRKETI, priority 2021, published 2024).
# Settings: topical application of 3% boric acid to wounds
compound,measurement,value
OB(O)O [boric acid],length of stay in intensive care units,reduces the length of stay in intensive care units three times
